Article PMC7993375, “Discovery of novel quinoline-based analogues of combretastatin A-4 as tubulin polymerisation inhibitors with apoptosis inducing activity and potent anticancer effect” (Journal of Enzyme Inhibition and Medicinal Chemistry, 2021)

How the values were obtained:
caspase-9 = test: Caspase-9 activation assay; assay type: cell-based, human
Procedure: The level of the anti-apoptotic marker and apoptotic marker BAX were assessed using Bcl-2 Elisa kit and human Bax ELISA Kit purchased from Zymed laboratories, invitrogen and Cloud-Clone Crop. (Katy, TX, USA), respectively, following the manufacturer’s instructions. Briefly, Treated MCF-7 cell lysate with 250 nM of compound 12c were prepared, and equal amount of cell lysates were loaded and propped with specific antibodies. The samples were measured and analysed at 450 nm in ROBONEK P2000 ELISA reader. In Vitro Caspase-9 Activation Assay was performed using human active caspase-9 Invitrogen EIA kit according to the manufacturer’s instructions. Compound 12c at concentrations of 50 and 250 nM and CA-4 (50 nM) were prepared in dH2O up to a final volume of 50 µL/well followed by addition of 5 µL of active caspase-9. Following, the cells were mixed and 50 µL of the Master Mix was added to each well and allowed to react at 37 °C for 1 h. The fluorescence intensity of the test samples was recorded and analysed in a fluorescence plate reader at 400 nm excitation and 505 nm emissions. All experiments were conducted in triplicates.

bovine brain tubulin = test: Tubulin polymerisation assay; assay type: biochemical; conditions: Tubulin was at 10 µM; read-out: Tubulin assembly IC50 (inhibition of tubulin polymerisation)
Procedure: The assembly of purified bovine tubulin was monitored using a kit, BK006, purchased from Cytoskeleton Inc., (Denver, CO, USA). The assay was carried out in accordance with the manufacturer’s instructions using the standard assay conditions. Briefly, purified ([…]) in a buffer consisting of 80 mM PIPES (pH 6.9), 0.5 mM EGTA, 2 mM MgCl2, 1 mM GTP and 10% glycerol was incubated at 37 °C in the presence of either vehicle (2% (v/v) ddH2O), CA-4, or the quinoline compounds. Light is scattered proportionally to the concentration of polymerised microtubules in the assay. Therefore, tubulin assembly was monitored turbidimetrically at 340 nm in a Spectramax 340 PC spectrophotometer (Molecular Devices, Sunnyvale, CA, USA). The concentration that inhibits tubulin polymerisation by 50% (IC50) was determined using area under the curve (AUC). The AUC of the untreated controls were considered as 100% polymerisation. The IC50 value for each compound was computed using GraphPad Prism Software.

MCF-7 cells [1] = test: Cell cycle analysis (PI, flow cytometry); assay type: cell-based, human; conditions: for percentage of cells in G0/G1 phase: control 57.3%
Procedure: MCF-7 cells were seeded at a density of 1 × 10^5 cells/well in 6-well plates and treated with CA-4 (50 nM) and compound 12c (50 and 250 nM) for 24, 48 and 72 h. The cells were collected by trypsinisation and centrifuged at 800×g for 15 min. Cells were washed twice with ice-cold PBS and fixed in ice-cold 70% ethanol overnight at −20 °C. Fixed cells were centrifuged at 800×g for 15 min and stained with 50 µg/mL of PI, containing 50 µg/mL of DNase-free RNase A, at 37 °C for 30 min. The DNA content of cells (10,000 cells/experimental group) was analysed by flow cytometer at 488 nm using a FACSCalibur flow cytometer (BD Biosciences, San Jose, CA) and all data were recorded and analysed using the CellQuest Software (Becton-Dickinson).

MCF-7 cells [2] = test: Intracellular ROS production (H2-DCFDA); assay type: cell-based, human; conditions: 24 h, untreated 1.0%
Procedure: Mitochondrial membrane potential (Δψmt) was measured by flow cytometry with DiOC2(3) staining and additional labelling with an annexin V conjugate. After treatment with compound 12c (50 and 250 nM) and CA-4 (50 nM), cells were stained with DiOC2(3) dye for 30 min in the incubator, then harvested and washed with PBS. DiOC2(3)-stained cells were resuspended with 1X annexin binding buffer, followed by addition of annexin V conjugate and incubated at 37 °C for 15 min. The data from the flow cytometry were analysed by Cell Quest software. Production of intracellular reactive oxygen species (ROS) was measured using 2,7–dichlorofluorescin diacetate (H2-DCFDA) dye. MCF-7 cells were seeded and treated either with vehicle (0.1% DMSO) or with compound 12c (50 and 250 nM) or CA-4 (50 nM) for 6, 12 and 24 h. H2O2 was used as a positive control. The amount of ROS generated was estimated after 2 h of selected compound treatment. The cells were collected by centrifugation and washed twice with PBS. Cells were then incubated with DCFDA dye (25 µM) in dark at 37 °C for 1 h. Fluorescence spectra (510 − 600 nm) were monitored using an excitation wavelength of 488 nm[53]^,[54].

[3] = test system: tubulin (colchicine binding site); test: Colchicine site competitive binding assay ([3H]colchicine); conditions: tubulin 1 µM, colchicine 5 µM
Procedure: The affinity of compounds 12c to colchicine binding site was determined using Colchicine Site Competitive Assay kit CytoDYNAMIX Screen15 (Cytoskeleton, Inc., Denver, CO, USA) using the standard protocol of the manufacturer to determine Ki. Biotin-labelled tubulin ([…], PerkinElmer, Waltham, MA) and the test compounds (positive control colchicine, negative control vinblastine, G-1, fluorescent G-1, or 2-ME) in a 96-well plate (final volume: 100 µL). After incubating for 2 h at 37 °C with gentle shaking, streptavidin-labelled yttrium SPA beads (80 µg in 20 µL reaction buffer, PerkinElmer, Waltham, MA) were added to each well and incubated for 30 min at 4 °C. The plates were then read on a scintillation counter (Packard Instrument, Topcount Microplate Reader) and the percentage of inhibition was calculated[50]^,[51].

| SMILES | increase in caspase-9 activation (caspase-9; MCF-7, 50 nM) | IC50 (bovine brain tubulin) [µM] | apoptosis, proportion of cells in sub-G1 phase (MCF-7 cells [1]; 50 nM, 24 h) [%] | percentage of cells in G2/M phase (MCF-7 cells [1]; 50 nM, 24 h) [%] | apoptosis, proportion of cells in sub-G1 phase (MCF-7 cells [1]; 50 nM, 48 h) [%] | percentage of cells in G2/M phase (MCF-7 cells [1]; 50 nM, 48 h, untreated 9.2%) [%] | apoptosis, proportion of cells in sub-G1 phase (MCF-7 cells [1]; 50 nM, 72 h) [%] | percentage of cells in G2/M phase (MCF-7 cells [1]; 50 nM, 72 h) [%] | levels of ROS in MCF-7 cells (MCF-7 cells [2]; 50 nM) [%] | Colchicine binding, % inhibition of [3H]colchicine binding ([3]; 1 µM drug) [%] | Colchicine binding, % inhibition of [3H]colchicine binding ([3]; 5 µM drug) [%] | increase in caspase-9 activation (caspase-9; MCF-7, 250 nM) [fold] | percentage of cells in G0/G1 phase (MCF-7 cells [1]; 50 nM, 72 h) [%] | apoptosis, proportion of cells in sub-G1 phase (MCF-7 cells [1]; 250 nM, 24 h, untreated 1.5%) [%] | apoptosis, proportion of cells in sub-G1 phase (MCF-7 cells [1]; 250 nM, 48 h, untreated 1.5%) [%] | percentage of cells in G2/M phase (MCF-7 cells [1]; 250 nM, 48 h, untreated 9.2%) [%] | percentage of cells in G2/M phase (MCF-7 cells [1]; 250 nM, 72 h) [%] | percentage of cells in G0/G1 phase (MCF-7 cells [1]; 250 nM, 72 h) [%] | apoptosis, proportion of cells in sub-G1 phase (MCF-7 cells [1]; 250 nM, 72 h, untreated 1.5%) [%] | levels of ROS in MCF-7 cells (MCF-7 cells [2]; 250 nM) [%] |
| --- | --- | --- | --- | --- | --- | --- | --- | --- | --- | --- | --- | --- | --- | --- | --- | --- | --- | --- | --- | --- |
| COc1ccc(/C=C\c2cc(OC)c(OC)c(OC)c2)cc1O [CA-4, Combretastatin A-4] | 14 fold | […] | 23.5 | 40.3 | 31.1 | 43.8 | 37.4 | 47.7 | 18.3 | 86 ± 0.9 | 97 ± 2 |  |  |  |  |  |  |  |  |  |
| COc1cc(C2=NC(=Cc3cc4ccc(C)cc4nc3OC)C(=O)O2)cc(OC)c1OC [Compound 12c, 4-[(2-Methoxy-7-methylquinolin-3-yl)methylene]-2–(3,4,5-trimethoxyphenyl) oxazol-5(4H)-one] | about 8 fold | 1.21 |  |  |  | 28.4 |  | 33.0 | 22.7 | 79 ± 2 | 87 ± 1 | ~16 | 40.3 | 16.2 | 23.4 | 38.3 | 40.8 | 29.8 | 32.7 | 26.6 |
